Data: ChEMBL document CHEMBL1151351, “Antineoplastic Agents. 67. Senecio fendleri Gray” (1980)

Legend:
P388 [1] = assay: In vivo antitumor activity against mouse P388 cells at 2 mg/kg relative to control; type: functional
P388 [2] = assay: In vivo antitumor activity against mouse P388 cells at 5 mg/kg relative to control; type: functional

For `COC(=O)CC1(O)C=CC(=O)C=C1` [JACARANONE], the T/C (P388 [1]) was 165%.

`CCOC(=O)CC1(O)C=CC(=O)C=C1` showed a T/C (P388 [2]) of 120%.
